The text below walks through data of publication PMC4956231, “Molecular Mechanisms for Drug Hypersensitivity Induced by the Malaria Parasite’s Chloroquine Resistance Transporter” (PLoS Pathogens, 2016).

Structures are written as SMILES. Marks after values point to notes of the source that are not given here.

Test [1] deals with PfCRT^Dd2. The test can be described thus: Trans-stimulation of [3H]CQ uptake by microinjected compound in oocytes. Format: cell-based, Plasmodium falciparum. The settings on record: oocytes expressing PfCRT^Dd2 microinjected with unlabeled amantadine. As for the experimental part:
(§1) A subset of experiments measured the ability of unlabeled amantadine to trans-stimulate the uptake of [^3H]CQ into the oocyte. Immediately prior to the commencement of the experiment, the oocytes (days 3–4 post-injection of the cRNA) were microinjected with either amantadine (estimated intracellular concentrations of 1, 2.5, 5, 10, 15, or 20 mM) or a control treatment (buffer, spermine, or histidine; the estimated intracellular concentrations of spermine and histidine were 5 and 10 mM). The volume injected was 50 nL and the intracellular concentrations were calculated using previous estimates of the volume of stage V-VI oocytes (~400 nL [77]). The resealed oocytes were then incubated at 16–18°C in OR^2+ buffer for approximately 5 min and the influx of [^3H]CQ was measured as described above. […] The Michaelis-Menten equation was then fitted to the data to derive the kinetic parameters for the trans-stimulation of [^3H]CQ transport by amantadine.

For test [2], the target named is T1, 76I,369F-PfCRT^K1 (Plasmodium falciparum, UniProt Q9N623, A220S/K76I/M74I/N326S/N75E/Q271E/R371I/V369F). The description is as above. Format: cell-based. As for the experimental part: as §1
T1 sequence (Q9N623 whole entry A220S/K76I/M74I/N326S/N75E/Q271E/R371I/V369F): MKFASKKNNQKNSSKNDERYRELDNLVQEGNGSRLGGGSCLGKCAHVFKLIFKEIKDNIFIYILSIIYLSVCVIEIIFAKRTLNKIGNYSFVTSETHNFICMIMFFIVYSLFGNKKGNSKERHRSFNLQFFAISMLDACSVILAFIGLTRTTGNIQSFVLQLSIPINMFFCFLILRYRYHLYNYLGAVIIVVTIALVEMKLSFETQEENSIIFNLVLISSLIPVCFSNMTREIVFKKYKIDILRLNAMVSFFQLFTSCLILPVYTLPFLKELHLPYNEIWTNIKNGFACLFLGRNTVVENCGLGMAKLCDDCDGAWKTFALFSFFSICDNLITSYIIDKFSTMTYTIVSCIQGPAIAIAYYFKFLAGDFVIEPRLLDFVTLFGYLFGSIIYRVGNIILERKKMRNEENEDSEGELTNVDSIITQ
The target in test [3] is T2, 76I-PfCRT^K1 (Plasmodium falciparum, UniProt Q9N623, A220S/K76I/M74I/N326S/N75E/Q271E/R371I). The test is described as above. Format: cell-based. Here is the method:
as §1

For test [4], the target named is PfNT1 (Plasmodium falciparum, UniProt Q8IDM6). Described as above. Format: cell-based. The settings on record: oocytes expressing PfNT1, microinjected amantadine. As for the experimental part:
as §1

Test [5] concerns the target T1, 76I,369F-PfCRT^K1. The test can be described thus: Inhibition of PfCRT-mediated [3H]CQ transport in oocytes. The class given is cell-based. The note with it: via 76I,369F-PfCRT^K1 in oocytes. Here is the method: (§2) For each treatment, 10 oocytes were transferred to a 5 mL polystyrene round bottom tube (Falcon) and washed twice with 3.5 mL of ND96 buffer, with the residual buffer removed by pipette. […] The assay was terminated by removing the reaction buffer with a pipette and washing the oocytes twice with 3.5 mL of ice-cold ND96 buffer. Each oocyte was transferred to a separate well of a white 96-well plate (NUNC or PerkinElmer), incubated overnight at room temperature in 30 μL of 10% SDS, and mixed on an orbital shaker the following day for approximately 5 min. The lysed oocyte was then combined with 150 μL of MicroScint-40 microscintillant (PerkinElmer), the plate covered with a TopSeal-A (PerkinElmer), and the radioactivity measured with a PerkinElmer MicroBeta^2 microplate liquid scintillation analyzer.
(§3) The IC50 values presented in Fig 3A were determined in SigmaPlot by a least-squares fit of the equation y = y min + [(y max—y min)/(1 + ([inhibitor]/IC50)c] to the data, where y is PfCRT-mediated CQ transport, y min and y max are the minimum and maximum values of y, and c is a fitted constant. PfCRT-mediated CQ transport was calculated by subtracting the uptake measured in the control oocytes (oocytes expressing 76K PfCRT^K1) from that in oocytes expressing 76I-PfCRT^K1 or 76I,369F-PfCRT^K1.

Test [6] addresses T2, 76I-PfCRT^K1. The description is as above. The class given is cell-based. The note with it: via 76I-PfCRT^K1 in oocytes. As for the experimental part: as §2, §3
Test [7] has as its system 163R,356V-PfCRT^K1. The experiment in a line: [3H]drug transport into Xenopus oocytes expressing PfCRT. The class given is cell-based, Plasmodium falciparum. The note with it: oocytes expressing 163R,356V-PfCRT^K1; pH 5.0, 50 μM unlabeled amantadine. As for the experimental part:
as §2

In test [8] the test system is 76K-PfCRT^K1. The test is described as above. The note with it: oocytes expressing 76K-PfCRT^K1; pH 5.0, 50 μM unlabeled amantadine. The class given is cell-based, Plasmodium falciparum. Here is the method: as §2
Test [9] has as its system 76N-PfCRT^K1. The test is described as above. The note with it: transport via 76N-PfCRT^K1 in oocytes, CQ pH 6.0, quinine and quinidine pH 5.0. The class given is cell-based, Plasmodium falciparum. As for the experimental part:
as §2
Note that noninjected oocytes and oocytes expressing PfCRT^3D7 take up [^3H]CQ to similar (low) levels via simple diffusion of the neutral species of the drug; this represents the ‘background’ level of [^3H]CQ accumulation in oocytes (refer to Martin et al. for full data and discussion).

Test [10] concerns P. falciparum line 106/1^76T. The settings on record: 106/1^76T (PfCRT^K1); IC50 in line divided by IC50 in drug-sensitive reference strain; cited from earlier work.
Test [11] concerns P. falciparum 106/1. The note with it: 106/1 (76K-PfCRT^K1); IC50 in line divided by IC50 in drug-sensitive reference strain; cited from earlier work.
The test system of test [12] is P. falciparum line 106/1^76I,369F. The settings on record: 106/1^76I,369F (76I,369F-PfCRT^K1); IC50 in line divided by IC50 in drug-sensitive reference strain; cited from earlier work.
The subject of test [13] is P. falciparum line 106/1^72R,76I. The settings on record: 106/1^72R,76I (72R,76I-PfCRT^K1); IC50 in line divided by IC50 in drug-sensitive reference strain; cited from earlier work.
Test [14] has as its system PfCRT^K1. The settings on record: oocytes; cited from earlier work.
Test [15] concerns P. falciparum line 106/1^76I. The settings on record: 106/1^76I (76I-PfCRT^K1); IC50 in line divided by IC50 in drug-sensitive reference strain; cited from earlier work.
Test [16] concerns P. falciparum isolate HON. The note with it: HON (PfCRT^3D7); IC50 in line divided by IC50 in drug-sensitive reference strain; cited from earlier work.
The test system of test [17] is P. falciparum line 106/1^76I,352R. The note with it: 106/1^76I,352R (76I,352R-PfCRT^K1); IC50 in line divided by IC50 in drug-sensitive reference strain; cited from earlier work.
The test system of test [18] is PfCRT^Dd2. The test can be described thus: [3H]drug transport into Xenopus oocytes expressing PfCRT. Format: cell-based, Plasmodium falciparum. The note with it: PfCRT^Dd2-expressing oocytes; [3H]CQ […], pH 5.5, 15 μM unlabeled CQ (S5 Fig). Here is the method: as §2

T2 sequence (Q9N623 whole entry A220S/K76I/M74I/N326S/N75E/Q271E/R371I): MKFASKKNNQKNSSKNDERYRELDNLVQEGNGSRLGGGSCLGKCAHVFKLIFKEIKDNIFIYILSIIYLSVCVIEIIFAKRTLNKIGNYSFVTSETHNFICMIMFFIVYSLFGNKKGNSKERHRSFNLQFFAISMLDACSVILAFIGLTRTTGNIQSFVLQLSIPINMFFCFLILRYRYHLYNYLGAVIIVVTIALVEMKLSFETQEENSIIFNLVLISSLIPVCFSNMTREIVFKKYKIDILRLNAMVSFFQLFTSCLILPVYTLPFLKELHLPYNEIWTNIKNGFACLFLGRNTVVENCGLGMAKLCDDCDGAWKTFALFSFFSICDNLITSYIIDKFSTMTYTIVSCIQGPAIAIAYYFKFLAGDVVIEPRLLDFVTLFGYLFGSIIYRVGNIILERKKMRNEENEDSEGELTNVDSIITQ
Chain of PfNT1 (Q8IDM6 whole entry): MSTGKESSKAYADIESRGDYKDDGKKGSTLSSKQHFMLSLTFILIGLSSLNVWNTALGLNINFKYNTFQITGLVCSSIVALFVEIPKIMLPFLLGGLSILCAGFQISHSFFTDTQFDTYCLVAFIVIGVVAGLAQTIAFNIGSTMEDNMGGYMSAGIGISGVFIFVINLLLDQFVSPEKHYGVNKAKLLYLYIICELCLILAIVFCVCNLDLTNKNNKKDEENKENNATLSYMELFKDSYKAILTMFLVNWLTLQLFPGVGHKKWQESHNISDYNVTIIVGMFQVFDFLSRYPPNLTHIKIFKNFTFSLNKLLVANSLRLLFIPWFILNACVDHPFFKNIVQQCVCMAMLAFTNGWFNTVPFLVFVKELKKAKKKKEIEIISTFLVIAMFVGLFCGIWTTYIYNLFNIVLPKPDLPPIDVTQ

Regarding `NC12CC3CC(CC(C3)C1)C2` [amantadine], the “increase in the rate of CQ influx (trans-stimulation)” value in [1] amounted to 6.7 ± 0.3 pmol per oocyte/h; in test [2] (oocytes expressing 76I,369F-PfCRT^K1 microinjected with unlabeled amantadine), 0.43 ± 0.02 pmol per oocyte/h; in test [3] (oocytes expressing 76I-PfCRT^K1 microinjected with unlabeled amantadine), 0.68 ± 0.04 pmol per oocyte/h. Further, the “Hill coefficient (trans-stimulation of [3H]CQ uptake)” value is reported as 1.46 ± 0.05 in test [2] (76I,369F-PfCRT^K1) and 1.49 ± 0.07 in [3] (76I-PfCRT^K1). Besides, the “effect on accumulation of [3H]CQ (trans-stimulation)” value in test [4] is “did not affect”. The results for the IC50 in test [5] and in test [6] were 174 ± 26 µM and 186 ± 16 µM, respectively. Further, the “[3H]amantadine accumulation relative to background” value in [7] and in test [8] was “failed to take up” throughout.

Regarding `CCN(CC)CCCC(C)Nc1ccnc2cc(Cl)ccc12` (stereo not drawn) [CQ, chloroquine], the “Apparent Vmax” value in test [9] is 48.0 ± 4.5^c,f (7) pmol per oocyte/h. For the same compound, the Km – broadly, the concentration of substrate that gives half-maximal velocity – in test [9] (read-out: Apparent Km) amounted to 303 ± 5 µM. In addition, the “Drug susceptibility (In vitro resistance index)” value is on record as 12.95 ± 0.95 in [10]; 1.10 ± 0.06 in [11]; 3.53 in test [12]; 1.13 ± 0.07 in test [13]; 15.66 ± 2.20 in test [15]; 1 in test [16]. For the same compound, the “Drug susceptibility (In vitro resistance index)” value in test [17] is 1.58 ± 0.02. Besides, the “CQ transport activity of PfCRT^K1, higher than that of PfCRT^Dd2” value in test [14] is recorded as ~ 20%. Also, the “rate of CQ uptake” value in test [18] was 24 ± 1.3 pmol per oocyte/h.
